The text below walks through data of publication PMC5291822 (Bioorganic & medicinal chemistry, 2016).

The target of this assay is T1, human GVIA iPLA2 (Homo sapiens, UniProt O60733).
T1 sequence (O60733 1-806): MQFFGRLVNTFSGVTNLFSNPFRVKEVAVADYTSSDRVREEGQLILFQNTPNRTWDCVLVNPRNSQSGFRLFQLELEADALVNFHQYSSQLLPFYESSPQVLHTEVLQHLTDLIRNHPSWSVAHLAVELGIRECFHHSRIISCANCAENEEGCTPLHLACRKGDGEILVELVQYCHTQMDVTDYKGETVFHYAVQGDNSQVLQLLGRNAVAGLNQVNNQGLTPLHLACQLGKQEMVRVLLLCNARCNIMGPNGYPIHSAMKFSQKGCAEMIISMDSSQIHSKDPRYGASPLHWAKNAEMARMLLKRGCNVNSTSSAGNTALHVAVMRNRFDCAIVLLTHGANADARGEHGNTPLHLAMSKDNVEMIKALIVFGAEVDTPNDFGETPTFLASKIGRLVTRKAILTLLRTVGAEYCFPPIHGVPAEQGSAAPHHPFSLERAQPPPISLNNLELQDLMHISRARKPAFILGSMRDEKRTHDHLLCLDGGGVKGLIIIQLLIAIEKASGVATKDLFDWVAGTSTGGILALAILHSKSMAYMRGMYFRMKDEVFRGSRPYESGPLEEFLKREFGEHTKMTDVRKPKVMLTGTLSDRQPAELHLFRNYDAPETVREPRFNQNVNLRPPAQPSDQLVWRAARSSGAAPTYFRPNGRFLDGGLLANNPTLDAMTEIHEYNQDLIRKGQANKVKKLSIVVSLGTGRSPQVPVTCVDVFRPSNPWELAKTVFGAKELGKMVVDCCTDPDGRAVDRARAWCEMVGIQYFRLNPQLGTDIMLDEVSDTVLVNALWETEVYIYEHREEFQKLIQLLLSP
Briefly: mixed micelle modified Dole assay, GVIA iPLA2. The class given is biochemical. As to conditions: for XI(50) GVIA iPLA2: mole fraction of inhibitor in total substrate interface giving 50% inhibition.

By IC50 is commonly meant the midpoint of a concentration-inhibition curve. A higher IC50 goes with weaker potency.

As for `CCCC[C@@H](COCC(=O)O)NC(=O)C(=O)CCCCc1ccc(OC)cc1` [20d, (S)-2-((2-(6-(4-Methoxyphenyl)-2-oxohexanamido)hexyl)oxy)acetic acid], the “inhibitory activity on GVIA iPLA2 (in words)” value (from here on “inhibitory activity”) was “totally inactive”. As to `CCCC[C@H](NC(=O)C(=O)CCCCc1ccc(OC)cc1)C(=O)NCC(=O)OCc1ccccc1` [compound 31a, (S)-Benzyl 2-(2-(6-(4-methoxyphenyl)-2-oxohexanamido)hexanamido)acetate], the 50% inhibitory concentration (IC50) was 14 µM and the “XI(50) GVIA iPLA2” value is recorded as 0.026 mole fraction. With `CCCC[C@H](NC(=O)C(=O)CCCCc1ccc(OC)cc1)C(=O)NCCCC(=O)OC(C)(C)C` [compound 12e, (S)-tert-Butyl 4-(2-(6-(4-methoxyphenyl)-2-oxohexanamido)hexanamido)butanoate], the midpoint of inhibition, the IC50, lay at 3.8 µM and the “XI(50) GVIA iPLA2” value is 0.007 mole fraction. Moreover, the “times more potent inhibition of GVIA iPLA2 than of GIVA cPLA2” value (selectivity GVIA iPLA2 over GIVA cPLA2) is listed as “around 13 times”. On to `CCCC[C@H](NC(=O)C(=O)CCCCc1ccc2ccccc2c1)C(=O)NCC(=O)O` [13b, (S)-2-(2-(6-(Naphthalen-2-yl)-2-oxohexanamido)hexanamido) acetic acid], for which the “inhibitory activity” value is “totally inactive”. `CCCC[C@H](NC(=O)C(=O)CCCCc1ccc(OC)cc1)C(=O)NCC(=O)OC(C)(C)C` [compound 12c, (S)-tert-Butyl 2-(2-(6-(4-methoxyphenyl)-2-oxohexanamido)hexanamido)acetate]: the IC50 came out at 6.6 µM and the “XI(50) GVIA iPLA2” value is recorded as 0.012 mole fraction. As for `CCCC[C@H](NC(=O)C(=O)CCCCc1ccccc1)C(=O)NCC(=O)O` [13a, (S)-2-(2-(2-Oxo-6-phenylhexanamido)hexanamido)acetic acid], the “inhibitory activity” value was “totally inactive”. `COc1ccc(CCCCC(=O)C(=O)N[C@@H](CC(C)C)C(=O)NCC(=O)OC(C)(C)C)cc1` [compound 22a, (S)-tert-Butyl 2-(2-(6-(4-methoxyphenyl)-2-oxohexanamido)-4-methylpentanamido)acetate]: inhibition was half-maximal at 13 µM (IC50) and the “XI(50) GVIA iPLA2” value was 0.024 mole fraction.
